Tested on: biochemically recurrent prostate cancer
Test: CONDOR: 18F-DCFPyL PET/CT correct localization rate, detection rate and PPV vs composite standard of truth
Type: in vivo, men
Settings: for PPV % (95% CI): patient level
Description: 1. Correct Localization Rate (CLR), defined as percentage of subjects with a one-to-one correspondence between localization of at least one lesion identified on ^18F-DCFPyL PET/CT imaging and the composite truth standard, defined as either evaluable histopathology, informative correlative imaging, or PSA response after radiation therapy.
Men ≥18 years of age with a rising PSA after definitive PCa therapy and negative or equivocal imaging were enrolled. […] The primary endpoint of this study was the correct localization rate (CLR). CLR is defined as the percentage of patients with a one-to-one correspondence between localization of at least one lesion identified by ^18F-DCFPyL PET/CT and a composite standard of truth (SOT). SOT was determined by two central readers and included either histopathology or another standard imaging modality (i.e., fluciclovine-PET/CT, CT/MRI, bone scan) or alternatively, by a post-treatment PSA change for irradiated lesions.
Methods: Men ≥18 years—with rising PSA after definitive therapy and negative or equivocal standard of care imaging (e.g., CT/MRI, bone scintigraphy) were enrolled. A single 9 mCi (333 MBq)±20% dose of PyL was injected, followed by PET/CT 1-2 hours later. Primary endpoint was correct localization rate (CLR), defined as percentage of pts with a 1:1 correspondence between at least one lesion identified by PyL-PET/CT and the composite standard of truth: pathology, correlative imaging, or PSA response. […] The secondary endpoint, impact of PyL-PET/CT on clinical management of pts was based on the treating physician's documented clinical plans before and after PyL-PET/CT.
Men with a PSA ≥0.2 ng/mL after surgery or ≥2 ng/mL above the nadir after radiation therapy were eligible for enrollment. The primary endpoint was the correct localization rate (CLR) defined as positive predictive value with an additional requirement of anatomical lesion colocalization between ^18F-DCFPyL-PET/CT and a composite standard of truth (SOT). The SOT consisted of, in descending priority: 1) histopathology, 2) correlative imaging findings determined by two central readers, or 3) post-radiation PSA response. […] The impact of ^18F-DCFPyL-PET/CT as defined by change in management intent, and safety were evaluated as secondary endpoints.
Patients voided prior to imaging, and PET and non-contrast CT images were acquired from the mid-thigh through the skull vertex. All ^18F-DCFPyL-PET/CT scans were submitted to the central imaging core laboratory for assessment. Patients with positive ^18F-DCFPyL-PET/CT scans based on local interpretation were scheduled for post-^18F-DCFPyL-PET/CT follow-up to verify suspected lesion(s) based on a composite standard of truth (SOT). (FIG. 16)
Because of the expected absence of an amenable lesion for histologic verification in all patients, a composite SOT was employed based on assessment performed or initiated within 60 days following ^18F-DCFPyL-PET/CT. These reference standards were defined (in descending priority) as (1) evaluable histopathology results from prostatectomy, salvage pelvic lymph node dissection or biopsy; (2) imaging findings using ^18F-fluciclovine or ^11C-choline PET, or focused MRI or CT; or (3) if neither of the above was available or informative, confirmed PSA response up to 9 months post-radiation initiation (with no concomitant ADT) of all PET-positive foci. PSA response was defined as PSA decline by ≥50% from baseline that was confirmed on repeat measurement within 4 weeks, based on central laboratory results.
A central imaging core laboratory was employed to independently manage image handling, reader training, reader sessions and data collection. […] The readers had no access to any clinical information, including PSA values or other imaging available for a patient. […]

[1] = SOT Correlative imaging n=100, Reader 3
[2] = SOT Histopathology n=31, Reader 1
[3] = SOT Histopathology n=31, Reader 2
[4] = SOT Histopathology n=31, Reader 3
[5] = SOT PET-Fluciclovine n=71, Reader 1
[6] = SOT PET-Fluciclovine n=71, Reader 2
[7] = SOT PET-Fluciclovine n=71, Reader 3

In the case of `O=C(O)CC[C@H](NC(=O)N[C@@H](CCCCNC(=O)c1ccc([18F])nc1)C(=O)O)C(=O)O` [18F-DCFPyL, 2-(3-{1-carboxy-5-[(6-[^18F]fluoro-pyridine-3-carbonyl)-amino]-pentyl}ureido)-pentanedioic acid], the “CLR (TP/TP + FP)” value [1] is reported as “(86.1%)”, the “Negative PyL Scan” value [1] is reported as “(23.0%)” and the “PPV (TP/TP + FP)” value [1] is reported as “(87.0%)”. For the same compound, the “Positive PyL Scan” value [1] was “(77.0%)”, the “CLR (TP/TP + FP)” value [2] was “(78.6%)” and the “Negative PyL Scan” value [2] was “(6.5%)”. For the same compound, the “PPV (TP/TP + FP)” value [2] was “(93.1%)”, the “Positive PyL Scan” value [2] was “(93.5%)” and the “CLR (TP/TP + FP)” value [3] was “(82.8%)”. For the same compound, the “Negative PyL Scan” value [3] was “(3.2%)”, the “PPV (TP/TP + FP)” value [3] was “(93.3%)” and the “Positive PyL Scan” value [3] was “(96.8%)”. The “CLR (TP/TP + FP)” value [4] was “(80.8%)”, the “Negative PyL Scan” value [4] was “(9.7%)” and the “PPV (TP/TP + FP)” value [4] was “(92.9%)”. The “Positive PyL Scan” value [4] was “(90.3%)”, the “CLR (TP/TP + FP)” value (SOT MRI n=23, Reader 1) was “(80.0%)” and the “Negative PyL Scan” value (SOT MRI n=23, Reader 1) was “(30.4%)”. For the same compound, the “Positive PyL Scan” value (SOT MRI n=23, Reader 1) was “(69.6%)”, the “CLR (TP/TP + FP)” value (SOT MRI n=23, Reader 2) was “(86.7%)” and the “Negative PyL Scan” value (SOT MRI n=23, Reader 2) was “(30.4%)”. For the same compound, the “Positive PyL Scan” value (SOT MRI n=23, Reader 2) was “(69.6%)”, the “CLR (TP/TP + FP)” value (SOT MRI n=23, Reader 3) was “(86.7%)” and the “Negative PyL Scan” value (SOT MRI n=23, Reader 3) was “(30.4%)”. The “Positive PyL Scan” value (SOT MRI n=23, Reader 3) was “(69.6%)”, the “CLR (TP/TP + FP)” value [5] was “(90.9%)” and the “Negative PyL Scan” value [5] was “(14.1%)”. The “Positive PyL Scan” value [5] was “(85.9%)”, the “CLR (TP/TP + FP)” value [6] was “(90.0%)” and the “Negative PyL Scan” value [6] was “(23.9%)”. For the same compound, the “Positive PyL Scan” value [6] was “(76.1%)”, the “CLR (TP/TP + FP)” value [7] was “(86.8%)” and the “Negative PyL Scan” value [7] was “(19.7%)”. For the same compound, the “Positive PyL Scan” value [7] was “(80.3%)”, the “CLR (TP/TP + FP)” value (SOT PSA response n=1, Reader 1) was “(100%)” and the “Negative PyL Scan” value (SOT PSA response n=1, Reader 1) was “(0.0%)”. For the same compound, the “PPV (TP/TP + FP)” value (SOT PSA response n=1, Reader 1) was “(100%)”, the “Positive PyL Scan” value (SOT PSA response n=1, Reader 1) was “(100%)” and the “CLR (TP/TP + FP)” value (SOT PSA response n=1, Reader 2) was “(100%)”. For the same compound, the “Negative PyL Scan” value (SOT PSA response n=1, Reader 2) was “(0.0%)”, the “PPV (TP/TP + FP)” value (SOT PSA response n=1, Reader 2) was “(100%)” and the “Positive PyL Scan” value (SOT PSA response n=1, Reader 2) was “(100%)”. For the same compound, the “CLR (TP/TP + FP)” value (SOT PSA response n=1, Reader 3) was “(100%)”, the “Negative PyL Scan” value (SOT PSA response n=1, Reader 3) was “(0.0%)” and the “PPV (TP/TP + FP)” value (SOT PSA response n=1, Reader 3) was “(100%)”. The “Positive PyL Scan” value (SOT PSA response n=1, Reader 3) was “(100%)”, the “CLR (TP/TP + FP)” value (all patients n=208, Reader 1) was “(85.6%)” and the “Negative PyL Scan” value (all patients n=208, Reader 1) was “(34.1%)”. For the same compound, the “Positive PyL Scan” value (all patients n=208, Reader 1) was “(65.9%)”, the “CLR (TP/TP + FP)” value (all patients n=208, Reader 2) was “(87.0%)” and the “Negative PyL Scan” value (all patients n=208, Reader 2) was “(40.4%)”. For the same compound, the “Positive PyL Scan” value (all patients n=208, Reader 2) was “(59.6%)”, the “CLR (TP/TP + FP)” value (all patients n=208, Reader 3) was “(84.8%)” and the “Negative PyL Scan” value (all patients n=208, Reader 3) was “(40.9%)”. The “Positive PyL Scan” value (all patients n=208, Reader 3) was “(59.1%)”, the lesion detection rate (baseline PSA <0.5 ng/mL) was 36.2% and the “median CLR” value (baseline PSA <0.5 ng/mL) was 73.3%. For the same compound, the lesion detection rate (baseline PSA ≥5 ng/mL) was 96.7%, the “median CLR” value (baseline PSA ≥5 ng/mL) was 96.4% and the “PPV % (95% CI)” value (CONDOR Reader 4) was 90%. The “PPV % (95% CI)” value (CONDOR Reader 5) was 91%, the “PPV % (95% CI)” value (CONDOR Reader 6) was 89% and the CLR (patients with PSA 0.2 to <2.0 ng/mL) was greater than 73%. The “PET/CT finding, case study 2” value (person, PSA 1.27 ng/mL, confirmed by contrast-MRI) was “lumbar spine metastasis”, the “PET/CT finding, case study 1” value (person, PSA 1.92 ng/mL, confirmed by pathology) was “L common iliac and multiple retroperitoneal lymph node lesions” and the “PET/CT finding, case study 3” value (person, PSA 1.78, confirmed by biopsy) was “a thoracic spine lesion”.

From US20230274811A1, “METHODS OF MAKING PROSTATE CANCER TREATMENT DECISIONS” (Progenics Pharmaceuticals, Inc., priority 2020, published 2023)
